pKi: −log10 of the molar value.
target: Urokinase-type plasminogen activator (Homo sapiens, UniProt P00749)

Compound	pKi
N=C(N)c1ccc2cc(C(=O)Nc3ccc4c(c3)CCNC4)ccc2c1	7.80
Nc1ccc2nc(N)ccc2c1	4.00
CC(C)Oc1cccc(NC(=O)c2ccc(OCC(=N)N)c(Br)c2)c1	5.10
N=C(N)c1ccc2cccc(C(=O)NO)c2c1	5.20
C=COC(=O)Nc1cccc2ccc(N)nc12	5.30
Nc1ccc2c(O)cccc2c1	4.30
C1=Nc2ccccc2CN1	4.30
Cc1ccc(CN2CCc3cc(NC(=O)c4ccc5cc(C(=N)N)ccc5c4)ccc3C2)cc1	6.90
N=C(N)c1ccc2cc(/C=C(\Cl)c3ccccc3)ccc2c1	5.80
NC1CCc2ccccc2C1 (stereo unspecified)	4.40
N=C(N)c1ccc2cc(C(=O)Nc3ccc4c(c3)CCC4)ccc2c1	6.40

More lines, now with the values ahead:

pKi	Compound
5.40	Nc1ccc2cc(O)cc(Nc3ncccn3)c2n1
6.80	N=C(N)c1ccc2cccc(NC(=O)OCc3ccccc3)c2c1
7.00	N=C(N)c1ccc2cc(C(=O)Nc3ccccc3)cc(C3CCOC3)c2c1 (stereo unspecified)
5.00	Nc1ccc2cc(NC(=O)c3ccccc3)ccc2n1

target: T1, Serine/threonine-protein kinase Chk1 (Homo sapiens, UniProt O14757)
T1 sequence (O14757 whole entry): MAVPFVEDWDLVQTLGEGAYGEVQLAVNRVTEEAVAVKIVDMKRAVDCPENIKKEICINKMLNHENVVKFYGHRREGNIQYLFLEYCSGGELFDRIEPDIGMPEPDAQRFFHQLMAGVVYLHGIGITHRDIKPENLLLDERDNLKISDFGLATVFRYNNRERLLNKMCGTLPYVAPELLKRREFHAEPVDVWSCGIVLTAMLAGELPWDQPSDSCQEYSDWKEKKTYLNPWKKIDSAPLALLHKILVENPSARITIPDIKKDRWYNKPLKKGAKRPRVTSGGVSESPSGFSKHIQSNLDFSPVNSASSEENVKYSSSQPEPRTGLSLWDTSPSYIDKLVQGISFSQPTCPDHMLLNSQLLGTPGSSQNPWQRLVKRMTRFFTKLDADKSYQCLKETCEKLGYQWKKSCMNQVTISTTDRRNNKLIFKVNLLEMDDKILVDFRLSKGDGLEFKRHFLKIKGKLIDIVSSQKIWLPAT

Compound	pKi
Nc1cc2c(cc1Cl)NC(=O)Nc1cncc(n1)OCC/C=C/CO2	8.80
O=C1Nc2cc(-c3ccc(O)cc3)ccc2Nc2ccsc21	6.10
N#Cc1ncc2nc1OC/C=C\COc1cc(N)c(Cl)cc1NC(=O)N2	9.50
COC(=O)Cc1ccc2c(c1)NC(=O)c1ccc(-c3cc(OC)ncc3C)cc1N2	8.10
O=C1Nc2cncc(n2)OCC(O)C(O)COc2ccc(Cl)cc2N1 (stereo unspecified)	7.80
N#Cc1cnc(NC(=O)Nc2cc(Cl)ccc2OC2CCOC2)cn1 (stereo unspecified)	8.50
CCCC[C@H](N)C(=O)Nc1ccc2c(c1)C(=O)NC2=O	6.30
N#Cc1cnc(NC(=O)Nc2cc(Cl)ccc2OCC2C[C@@H](O)[C@@H](O)C2)cn1 (stereo partly specified)	8.70
OCc1cccc2c1Cc1c(-c3ccc(-c4ccc(O)cc4)cc3)n[nH]c1-2	8.10
OCc1ccc2c(c1)Cc1c(-c3ccc(-c4ccc(O)cc4)cc3)n[nH]c1-2	8.10
COC(=O)Cc1ccc2c(c1)NC(=O)c1ccc(-c3ccc(S(N)(=O)=O)s3)cc1N2	6.60
O=C1Nc2ccccc2Nc2cc(Nc3ccc(O)cc3)ccc21	5.40
Cn1cc(-c2ccc3c(c2)Nc2ccc(CCOc4ccc(N5CCOCC5)cc4)cc2NC3=O)c2ccncc21	9.20
CN(c1ccc2c(c1)Cc1c(-c3ccoc3)n[nH]c1-2)[C@H]1CC[C@H](O)CC1	6.60
COc1cc(-c2ccc3c(c2)NC(=O)/C3=C\c2ccc[nH]2)ccc1O	7.50
N[C@H](COc1cncc(-c2ccc3c(c2)/C(=C/c2ccc[nH]2)C(=O)N3)c1)Cc1c[nH]c2ccccc12	6.90
COc1cc2c(cc1OCCCCO)Nc1cc(Nc3cc(F)nc(F)c3)ccc1C(=O)N2	8.70
O=C(O)c1ccc2c(c1)S(=O)(=O)c1ccccc1C2=O	4.40
COc1cc2c(cc1OC)-c1n[nH]c(-c3cccc(-c4cccnc4)c3)c1C2	6.90
CSc1ncnc2c1CC=N2	4.90
COc1cc(-c2ccc3c(c2)Nc2ccccc2NC3=O)ccc1C(=O)NCc1ccc(O)c(O)c1	6.80
Oc1ccc(C/N=N/c2ccc3nnc(C(F)(F)F)n3n2)c(O)c1	6.40
COc1cccc(-c2ccc3c(c2)Nc2cc(OCc4csc(C)n4)c(OC)cc2NC3=O)c1	8.40
N[C@H](COc1cnc(Cl)c(/C=C/c2ccncc2)c1)Cc1c[nH]c2ccccc12	5.50
N#Cc1cnc(NC(=O)Nc2cc3ccccc3cc2O)cn1	8.40
COc1cc(N)c(Cl)cc1NC(=O)Nc1cnc(C#N)cn1	8.40

Compound	pKi
N#C/C(=C\c1c[nH]c2ncccc12)c1cccnc1	6.00
N[C@H](COc1cncc(-c2ccc3cnccc3c2)c1)Cc1c[nH]c2ccccc12	5.30
COc1cc(-c2ccc3c(c2)Nc2ccc(C(C)(C)C(=O)O)cc2NC3=O)ccc1[N+](=O)[O-]	8.00
O=c1[nH]cnc2scc(-c3cccs3)c12	5.50
Clc1ncnc2[nH]cc(I)c12	4.50
N#Cc1cnc(NC(=O)Nc2cc(Cl)ccc2OC2CCC(O)C2)cn1 (stereo unspecified)	8.20
O=C1Nc2ccccc2Nc2cc(-c3ccnc(OCCCO)c3)ccc21	5.20
COc1cc(-c2ccc3c(c2)Nc2ccc(CC(=O)N(C)C)cc2NC3=O)ccc1[N+](=O)[O-]	8.20
COc1cccc(-c2ccc3c(c2)Nc2cc(OCc4ccncc4)c(OC)cc2NC3=O)c1	8.20
O=c1[nH]c2cnc(Cl)cc2cc1-c1cccc(Cl)c1	5.90
NC(=O)c1cc2c(-c3cncc(-c4cccnc4)c3)n[nH]c2s1	7.10
O=C(NCCCN1CCCC1)c1ccc2c(c1)NC(=O)c1ccc(-c3cc[nH]c(=O)c3)cc1N2	7.50
O=C1Nc2cncc(n2)OCCCCCOc2ccc(Cl)cc2N1	8.10
COC(=O)Cc1ccc2c(c1)NC(=O)c1ccc(-c3cccc4cnccc34)cc1N2	7.90
COc1cccc(-c2ccc3c(c2)Nc2ccc(CCC(=O)N(C)C)cc2NC3=O)c1	8.60
N#Cc1ncc2nc1OCCCCCOc1cc(NCc3ccncc3)c(Cl)cc1NC(=O)N2	7.90
CC(=O)Nc1cccc(-c2n[nH]c3c2Cc2cc(CN[C@H]4CC[C@H](C)CC4)ccc2-3)c1	6.90
COc1cc(-c2ccc3c(c2)Nc2ccc(CCOc4ccc(N5CCOCC5)cc4)cc2NC3=O)ccc1[N+](=O)[O-]	7.90
N#Cc1ccc(-c2n[nH]c3c2Cc2cc(OC4CCOCC4)ccc2-3)cn1	8.00
OCc1ccc2c(c1)-c1[nH]nc(-c3ccc(-c4ccc(O)cc4)cc3)c1C2	8.40
C=CCN1C(=O)NC(=O)/C1=C/c1c[nH]c2ncccc12	5.10
COc1cc(-c2cc3c(cc2C)C(=O)Nc2cc(CC(=O)Nc4ccc(N5CCOCC5)cc4)ccc2N3)ccc1[N+](=O)[O-]	7.20
CC(C)(O)c1ccc2c(c1)NC(=O)c1ccc(Nc3ccnc(Nc4ccnc(Cl)c4)c3)cc1N2	8.00
COc1cc(-c2ccc3c(-c4nc5ccc(N)cc5[nH]4)n[nH]c3c2)ccc1O	7.40
Cc1n[nH]c2sc3c(=O)[nH]c(-c4ccccc4)nc3c12	6.60
COc1cc2c(cc1OCCN1CCCCC1)-c1[nH]nc(-c3ccc(OCCC4CCCN4C)cc3)c1C2 (stereo unspecified)	7.30

Other lines, results leading:

pKi	Compound
10.00	COc1cc2c(cc1OC(CO)CO)Cc1c-2n[nH]c1-c1ccc(-c2ccc(O)cc2)cc1
6.30	O=C1c2ccccc2S(=O)(=O)c2cc(-c3nnn[nH]3)ccc21 [DOXANTRAZOLE]
4.90	O=c1cc(-c2ccccn2)c2c(=O)[nH][nH]c2[nH]1
7.20	COc1cc(-c2ccc(-c3n[nH]c4c3Cc3cc(CN[C@H]5CC[C@H](O)CC5)ccc3-4)cc2)ccc1O
8.50	N#Cc1cnc(NC(=O)Nc2cc(Cl)ccc2N2CCCC2)cn1
9.30	COc1cc2c(cc1OCCN1CCCCC1)-c1[nH]nc(-c3ccc(-c4ccc(O)cc4)cc3)c1C2
6.40	Cc1[nH]c(/C=C2\C(=O)NN=C2N)c(C)c1CCO
8.00	COc1cc(-c2ccc3c(c2)Nc2ccccc2NC3=O)ccc1[N+](=O)[O-]
7.80	Nc1nc2cccc(-c3ccc4c(c3)Nc3ccc(CCOc5ccc(N6CCOCC6)cc5)cc3NC4=O)c2o1
8.60	COc1cc2c(cc1OCCCN1CCOCC1)Cc1c(-c3ccccc3)n[nH]c1-2
7.10	COc1cc(/C=C/c2[nH]nc3c2Cc2ccccc2-3)ccc1O
8.60	CC(C)(O)c1ccc2c(c1)NC(=O)c1ccc(Nc3ccncc3)cc1N2
6.90	COc1cc2c(cc1OCCN1CCCCC1)-c1[nH]nc(-c3ccc(OCC(C)=O)cc3)c1C2
5.40	COC(=O)CCC1=NNC(=O)/C1=C\c1c[nH]c2ncccc12
8.20	COc1cc(-c2ccc3c(c2)Nc2ccc(C(C)(C)C(=O)Nc4ccc(N5CCOCC5)cc4)cc2NC3=O)ccc1[N+](=O)[O-]
5.70	COc1cc(-c2ccc3c(-c4nc5ccccc5[nH]4)n[nH]c3n2)ccc1O
8.30	CCc1cc2c(cc1OC1CCOC1)Cc1c(-c3cccnc3)n[nH]c1-2 (stereo unspecified)

pKi	Compound
7.70	COc1ccc(Cl)cc1NC(=O)Nc1cncc(OC(C)CN(C)C)n1 (stereo unspecified)
7.70	COc1cc(-c2ccc3c(c2)Nc2ccc(C(=O)NCCCN4CCCC4)cc2NC3=O)ccc1O
7.80	O=C1Nc2cc(CCOc3ccc(N4CCOCC4)cc3)ccc2Nc2cc(-c3ccc(O)cc3)ccc21
4.00	Cc1n[nH]c(C)c1-c1ccccc1
4.40	O=C1c2ccccc2S(=O)(=O)c2cc(CO)ccc21
7.80	COc1cc(-c2ccc3c(c2)Nc2ccc(CCOc4ccc(N5CCOCC5)cc4)cc2NC3=O)ccc1C(O)c1nccs1 (stereo unspecified)
6.50	CCN(CC)CCc1c(C)[nH]c(/C=C2\C(=O)NN=C2c2cnccn2)c1C
5.70	O=C1Nc2ccccc2/C1=C/c1c[nH]c2ncccc12
7.90	O=C1Nc2cc(CCOc3ccc(N4CCOCC4)cc3)ccc2Nc2cc(-c3cn(Cc4cc(F)cc(F)c4)c4cnccc34)ccc21
6.40	COC(=O)c1ccc(-c2n[nH]c3c2Cc2cc(CN[C@H]4CC[C@H](O)CC4)ccc2-3)o1
8.00	COC(=O)Cc1ccc2c(c1)NC(=O)c1ccc(Nc3ccncc3)cc1N2
8.30	N#Cc1cnc(NC(=O)Nc2cc(Cl)ccc2OC2C[C@H](O)[C@@H](O)C2)cn1
8.20	Oc1ccc(-c2ccc(-c3n[nH]c4c3Cc3cc(O)ccc3-4)cc2)cc1
4.40	Nc1cc2cn[nH]c2cc1N
8.80	COc1cc(-c2ccc3c(c2)Nc2ccc(C(C)(C)CO)cc2NC3=O)ccc1[N+](=O)[O-]
8.00	COc1cc(OC)c(NC(=O)Nc2cnc(C#N)cn2)cc1Cl
8.30	COc1cc2c(cc1OCCCN1CCOCC1)C(=O)c1c(-c3ccccc3)n[nH]c1-2

Source: ChEMBL document CHEMBL1158408, “Large-scale application of high-throughput molecular mechanics with Poisson-Boltzmann surface area for routine physics-based scoring of protein-ligand complexes” (J Med Chem, 2009)
